Reference: patent US8299048B2, “Hexahydrocyclopentyl[f]indazole sulfonamides and derivatives thereof as selective glucocorticoid receptor modulators” (Merck Sharp & Dohme Corp., priority 2008, dated 2012)

Target: T1, glucocorticoid receptor (Homo sapiens, UniProt P04150)
T1 construct: endogenous in cells
T1 sequence (P04150 1-777): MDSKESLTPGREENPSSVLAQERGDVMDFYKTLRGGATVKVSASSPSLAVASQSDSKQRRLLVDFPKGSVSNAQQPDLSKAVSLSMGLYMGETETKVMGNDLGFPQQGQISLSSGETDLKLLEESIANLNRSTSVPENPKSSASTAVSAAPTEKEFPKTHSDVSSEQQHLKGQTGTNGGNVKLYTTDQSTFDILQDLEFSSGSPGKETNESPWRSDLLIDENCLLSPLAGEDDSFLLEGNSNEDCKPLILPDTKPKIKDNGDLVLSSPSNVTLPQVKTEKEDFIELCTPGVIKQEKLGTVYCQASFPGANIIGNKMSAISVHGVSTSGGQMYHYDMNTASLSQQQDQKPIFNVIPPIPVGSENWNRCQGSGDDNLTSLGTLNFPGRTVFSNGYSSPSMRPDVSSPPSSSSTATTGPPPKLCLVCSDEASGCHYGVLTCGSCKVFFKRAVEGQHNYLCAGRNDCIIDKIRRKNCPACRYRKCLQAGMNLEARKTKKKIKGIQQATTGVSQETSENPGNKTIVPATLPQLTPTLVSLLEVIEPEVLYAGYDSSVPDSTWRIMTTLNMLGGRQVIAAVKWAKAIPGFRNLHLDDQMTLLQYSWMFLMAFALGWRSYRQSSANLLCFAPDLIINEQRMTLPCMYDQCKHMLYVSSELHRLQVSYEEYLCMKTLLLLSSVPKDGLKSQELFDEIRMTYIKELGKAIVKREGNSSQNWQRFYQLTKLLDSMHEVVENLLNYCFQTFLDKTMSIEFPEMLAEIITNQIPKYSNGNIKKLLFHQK
Assay: Ligand binding assay (GR BIND)
Procedure, shortened: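 Cytosol from freeze–thawed cells in TEGM (pH 7.2, 10 mM molybdate) was incubated overnight at 4 °C with compound and [3H]-dexamethasone trace (added as 6 nM solution), 2% EtOH final. Bound ligand was captured on hydroxylapatite, filtered, washed and scintillation counted. Values were calculated with dexamethasone as reference.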

In order of falling Ki:
1. Cn1cnc(S(=O)(=O)N(CC#N)C[C@H]2CCC3=Cc4c(cnn4-c4ccc(F)cc4)C[C@@]32C)c1 [Example 37, N-(cyanomethyl)-N-{[(4αR,5S)-1-(4-fluorophenyl}-4α-methyl-1,4,4α,5,6,7-hexahydrocyclopenta[f]indazol-5-yl]methyl}-1-methyl-1H-imidazole-4-sulfonamide]  10.7 nM
2. C[C@]12Cc3cnn(-c4ccc(F)cc4)c3C=C1CC[C@@H]2CN(CC#N)S(=O)(=O)c1cccc2ccccc12 [Example 40, N-(cyanomethyl)-N-{[(4αR,5S)-1-(4-fluorophenyl)-4α-methyl-1,4,4α,5,6,7-hexahydrocyclopenta[f]indazol-5-yl]methyl}naphthalene-1-sulfonamide]  10.5 nM
3. C[C@]12Cc3cnn(-c4ccc(F)cc4)c3C=C1CC[C@@H]2CN(CC#N)S(=O)(=O)c1ccccc1C(F)(F)F [Example 54, N-(cyanomethyl)-N-{[(4αR,5S)-1-(4-fluorophenyl)-4α-methyl-1,4,4α,5,6,7-hexahydrocyclopenta[f]indazol-5-yl]methyl}-2-(trifluoromethyl)benzenesulfonamide]  8.5 nM
4. CN1CCOc2cc(S(=O)(=O)N(CC#N)C[C@H]3CCC4=Cc5c(cnn5-c5ccc(F)cc5)C[C@@]43C)ccc21 [Example 39, N-(cyanomethyl)-N-{[(4αR,5S)-1-(4-fluorophenyl)-4α-methyl-1,4,4α,5,6,7-hexahydrocyclopenta[f]indazol-5-yl]methyl}-4-methyl-3,4-dihydro-2H-1,4-benzoxazine-7-sulfonamide]  8.1 nM
5. C[C@]12Cc3cnn(-c4ccc(F)cc4)c3C=C1CC[C@@H]2CN(CC#N)S(=O)(=O)c1ccccc1Cl [Example 50, 2-chloro-N-(cyanomethyl)-N-{[(4αR,5S)-1-(4-fluorophenyl)-4α-methyl-1,4,4α,5,6,7-hexahydrocyclopenta[f]indazol-5-yl]methyl}benzenesulfonamide]  6.5 nM
6. C[C@]12Cc3cnn(-c4ccc(F)cc4)c3C=C1CC[C@@H]2CN(CC#N)S(=O)(=O)c1ccc(Oc2cccc(Cl)c2C#N)cc1 [Example 38, 4-(3-chloro-2-cyanophenoxy)-N-(cyanomethyl)-N-{[(4αR,5S)-1-(4-fluorophenyl)-4α-methyl-1,4,4α,5,6,7-hexahydrocyclopenta[f]indazol-5-yl]methyl}benzenesulfonamide]  6.4 nM
7. C[C@]12Cc3cnn(-c4ccc(F)cc4)c3C=C1CC[C@@H]2CN(CC#N)S(=O)(=O)c1cc(OCC(F)(F)F)ccc1OCC(F)(F)F [Example 41, N-(cyanomethyl)-N-{[(4αR,5S)-1-(4-fluorophenyl)-4α-methyl-1,4,4α,5,6,7-hexahydrocyclopenta[f]indazol-5-yl]methyl}-2,5-bis(2,2,2-trifluoroethoxy)benzenesulfonamide]  5.9 nM
8. C[C@]12Cc3cnn(-c4ccc(F)cc4)c3C=C1CC[C@@H]2CN(CC#N)S(=O)(=O)c1ccc(-c2ccccc2)cc1 [Example 42, N-(cyanomethyl)-N-{[(4αR,5S)-1-(4-fluorophenyl)-4α-methyl-1,4,4α,5,6,7-hexahydrocyclopenta[f]indazol-5-yl]methyl}biphenyl-4-sulfonamide]  5.9 nM
9. Cc1oncc1S(=O)(=O)N(CCO)C[C@H]1CCC2=Cc3c(cnn3-c3ccc(F)cc3)C[C@@]21C [Example 56, N-{[(4αR,5S)-1-(4-fluorophenyl)-4α-methyl-1,4,4α,5,6,7-hexahydrocyclopenta[f]indazol-5-yl]methyl}-N-(2-hydroxyethyl)-5-methylisoxazole-4-sulfonamide]  4.6 nM
10. C[C@]12Cc3cnn(-c4ccc(F)cc4)c3C=C1CC[C@@H]2CN(CCO)S(=O)(=O)c1ccc(C#N)cc1Cl [Example 60, 2-chloro-4-cyano-N-{[(4αR,5S)-1-(4-fluorophenyl)-4α-methyl-1,4,4α,5,6,7-hexahydrocyclopenta[f]indazol-5-yl]methyl}-N-(2-hydroxyethyl)benezenesulfonamide]  4.4 nM
11. C[C@]12Cc3cnn(-c4ccc(F)cc4)c3C=C1CC[C@@H]2CN(CC#N)S(=O)(=O)c1ccccc1-c1ccccc1 [Example 53, N-(cyanomethyl)-N-{[(4αR,5S)-1-(4-fluorophenyl)-4α-methyl-1,4,4α,5,6,7-hexahydrocyclopenta[f]indazol-5-yl]methyl}biphenyl-2-sulfonamide]  3.7 nM
12. C[C@]12Cc3cnn(-c4ccc(F)cc4)c3C=C1CC[C@@H]2CN(CC#N)S(=O)(=O)c1ccccc1C#N [Example 55]  2.7 nM
13. C[C@]12Cc3cnn(-c4ccc(F)cc4)c3C=C1CC[C@@H]2CN(CCO)S(=O)(=O)c1ccc(F)c(F)c1 [Example 59]  2.6 nM
14. C[C@]12Cc3cnn(-c4ccc(F)cc4)c3C=C1CC[C@@H]2CN(CC#N)S(=O)(=O)c1ccc(F)cc1F [Example 51, N-(cyanomethyl)-2,4-difluoro-N-{[(4αR,5S)-1-(4-fluorophenyl)-4α-methyl-1,4,4α,5,6,7-hexahydrocyclopenta[f]indazol-5-yl]methyl}benzenesulfonamide]  2.5 nM
15. C[C@]12Cc3cnn(-c4ccc(F)cc4)c3C=C1CC[C@@H]2CN(CCO)S(=O)(=O)c1cccc(Cl)c1Cl [Example 61, 2,3-dichloro-N-{[(4αR,5S)-1-(4-fluorophenyl)-4α-methyl-1,4,4α,5,6,7-hexahydrocyclopenta[f]indazol-5-yl]methyl}-N-(2-hydroxyethyl)benezenesulfonamide]  2.5 nM
16. C[C@]12Cc3cnn(-c4ccc(F)cc4)c3C=C1CC[C@@H]2CN(CC#N)S(=O)(=O)c1ccc(Oc2ccccn2)cc1 [Example 45, N-(cyanomethyl)-N-{[(4αR,5S)-1-(4-fluorophenyl)-4α-methyl-1,4,4α,5,6,7-hexahydrocyclopenta[f]indazol-5-yl]methyl}-4-(pyridin-2-yloxy)benzenesulfonamide]  2.4 nM
17. C[C@]12Cc3cnn(-c4ccc(F)cc4)c3C=C1CC[C@@H]2CN(CCO)S(=O)(=O)c1cc(Cl)c(Cl)s1 [Example 58, 4,5-dichloro-N-{[(4αR,5S)-1-(4-fluorophenyl)-4α-methyl-1,4,4α,5,6,7-hexahydrocyclopenta[f]indazol-5-yl]methyl}-N-(2-hydroxyethyl)thiophene-2-sulfonamide]  2.3 nM
18. C[C@]12Cc3cnn(-c4ccc(F)cc4)c3C=C1CC[C@@H]2CN(CC#N)S(=O)(=O)c1ccccc1F [Example 43, N-(cyanomethyl)-2-fluoro-N-{[(4αR,5S)-1-(4-fluorophenyl)-4α-methyl-1,4,4α,5,6,7-hexahydrocyclopenta[f]indazol-5-yl]methyl}benzenesulfonamide]  2.2 nM
19. Cc1nn(C)c(Cl)c1S(=O)(=O)N(CC#N)C[C@H]1CCC2=Cc3c(cnn3-c3ccc(F)cc3)C[C@@]21C [Example 52, 5-chloro-N-(cyanomethyl)-N-{[(4αR,5S)-1-(4-fluorophenyl)-4α-methyl-1,4,4α,5,6,7-hexahydrocyclopenta[f]indazol-5-yl]methyl}-1,3-dimethyl-1H-pyrazole-4-sulfonamide]  1.9 nM
20. Cc1ccccc1S(=O)(=O)N(CC#N)C[C@H]1CCC2=Cc3c(cnn3-c3ccc(F)cc3)C[C@@]21C [Example 49, N-(cyanomethyl)-N-{[(4αR,5S)-1-(4-fluorophenyl)-4α-methyl-1,4,4α,5,6,7-hexahydrocyclopenta[f]indazol-5-yl]methyl}-2-methylbenzenesulfonamide]  1.8 nM
21. C[C@]12Cc3cnn(-c4ccc(F)cc4)c3C=C1CC[C@@H]2CN(CC#N)S(=O)(=O)c1cc(F)cc(F)c1 [Example 44, N-(cyanomethyl)-3,5-difluoro-N-{[(4αR,5S)-1-(4-fluorophenyl)-4α-methyl-1,4,4α,5,6,7-hexahydrocyclopenta[f]indazol-5-yl]methyl}benzenesulfonamide]  1.6 nM
22. C[C@]12Cc3cnn(-c4ccc(F)cc4)c3C=C1CC[C@@H]2CN(CC#N)S(=O)(=O)Cc1ccccc1 [Example 48, N-(cyanomethyl)-N-{[(4αR,5S)-1-(4-fluorophenyl)-4α-methyl-1,4,4α,5,6,7-hexahydrocyclopenta[f]indazol-5-yl]methyl}-1-phenylmethanesulfonamide]  0.9 nM
23. C[C@]12Cc3cnn(-c4ccc(F)cc4)c3C=C1CC[C@@H]2CN(CC#N)S(=O)(=O)c1ccc(F)cc1 [Example 46, N-(cyanomethyl)-4-fluoro-N-{[(4αR,5S)-1-(4-fluorophenyl)-4α-methyl-1,4,4α,5,6,7-hexahydrocyclopenta[f]indazol-5-yl]methyl}benzenesulfonamide]  0.7 nM
24. C[C@]12Cc3cnn(-c4ccc(F)cc4)c3C=C1CC[C@@H]2CN(CC#N)S(=O)(=O)c1cc(F)c(F)cc1F [Example 47, N-(cyanomethyl)-2,4,5-trifluoro-N-{[(4αR,5S)-1-(4-fluorophenyl)-4α-methyl-1,4,4α,5,6,7-hexahydrocyclopenta[f]indazol-5-yl]methyl}benzenesulfonamide]  0.7 nM
